Results published in patent publication US20130123287A1, “CONTROL AGENT FOR SOFT ROT AND CONTROL METHOD FOR THE SAME” (ISHIHARA SANGYO KAISHA, LTD., priority 2010, published 2013).

Columns and labels:
[1] = test system: bacteria causing the soft rot (Erwinia carotovora); assay: Inhibition test of growth of bacteria causing soft rot, Reference Test Example 2; format: cell-based; conditions: for formed colonies (growth state), grade: PSA medium, 27 degrees Celsius, 2 days; for inhibition of growth of Erwinia carotovora (in words): active ingredient concentration of 1,000 ppm
Excerpt: (§1) Inhibition test of growth of bacteria causing soft rot of potato An inhibition test of the growth of bacteria causing the soft rot was done, when a control agent was directly applied to the bacteria causing the soft rot. A given volume of each pesticide of azoxystrobin (Amistar-20 FLOWABLE [trade name], manufactured by Syngenta Japan K.K.), penthiopyrad (GAIA WG [trade name], manufactured by Mitsui Chemicals Agro, Inc.), flusulfamide (SCABLOCK SC [trade name] manufactured by Mitsui Chemicals Agro, Inc.), and streptomycin (Mycin Wettable powder [trade name] manufactured by Hokko Chemical Industry Co., Ltd.) was added together with a suspension of the bacteria causing the soft rot (Erwinia carotovora) to a preliminarily dissolved PSA culture medium (55 degrees Celsius) for subsequent thorough agitation, which was then spread on a plate for culturing at 27 degrees Celsius for 2 days, to examine the growth state. Subsequently, the formed colonies were examined according to the following three grades. • +: at the same level as the level of non-treated lot.
(§2) Plus or minus: apparently less than the colonies of the non-treated lot. • −: almost no colonies observed.

[2] = test system: soft rot of Chinese cabbage; assay: Test for controlling soft rot of Chinese cabbage, Example 2 / Comparative Example 2 (field, cultivar Harebutai 65); format: in vivo; conditions: 150 L/10 a sprayed onto planting holes before planting, 64 days after start
Excerpt: Frequency of the disease=[sigma(number of plants with the onset of the disease at each severity level*index of the onset of the disease)/(plants examined*4)]*100
Disease control value=[1-(frequency of the disease in the treated lot/frequency of the disease in the non-treated lot)]*100
• 0: No onset • 1: Onset in some of outer leaves (shippable) • 2: Onset in outer leaves and some of head leaves (by removing damaged parts, the resulting cabbage can be shipped as small cabbage but is ranked as grade B). • 3: Most of head leaves are inflicted with the onset of the disease or with severer damages (not shippable) • 4: Whole cabbage plant is inflicted with the onset of the disease and is dead.
200 g/l Azoxystrobin (Amistar 20 FLOWABLE [trade name], manufactured by Syngenta Japan K.K.) was adjusted to 500 g ai/10a (0.5 g/m^2, 2500 ml Product/10a) as the amount of the active ingredient and to 150 L/10a as the volume of diluent water.
30% w/w triflumizol (TRIFUMIN WP [trade name], manufactured by Nippon Soda Co., Ltd.) was adjusted to 500 g ai/10a (0.5 g/m^2, 1667 g Product/10a) as the amount of the active ingredient and to 150 L/10a as the volume of diluent water.
100 g/1 cyazofamid (RANMAN PLOWABLE [trade name], manufactured by Ishihara Sangyo Kaisha, Ltd.) was adjusted to 500 g ai/10a (0.5 g/m^2, 5000 ml Product/10a) as the amount of the active ingredient and to 150 L/10a as the volume of diluent water.
50% w/w penthiopyrad (GAIA WG [trade name], manufactured by Mitsui Chemicals Agro, Inc.) was adjusted to 500 g ai/10a (0.5 g/m^2, 1000 g Product/10a) as the amount of the active ingredient and to 150 L/10a as the volume of diluent water.
50 g/l flusulfamide (SCABLOCK SC [trade name], manufactured by Mitsui Chemicals Agro, Inc.) was adjusted to 500 g ai/10a (0.5 g/m^2, 10000 ml Product/10a) as the amount of the active ingredient and to 150 L/10a as the volume of diluent water.
400 g/1 chlorothalonil (Daconil 1000 [the trade name], manufactured by Sumitomo Chemical, Limited) was adjusted to 1000 g ai/10a (1.0 g/m^2, 2500 ml Product/10a) as the amount of the active ingredient and to 150 L/10a as the volume of diluent water.
(§3) After spreading an agricultural mulch-sheet and opening planting holes (diameter of about 5 cm) for permanent planting through the mulch-sheet, the spray solutions prepared as described above were sprayed onto the planting holes such that the amount of treated active ingredient of chlorothalonil was 1.0 g/m^2 (150 L per 10a) and the amount of each of the remaining spray solutions was 0.5 g/m^2 (150 L per 10a), followed by air-drying; subsequently, seedlings of Chinese cabbage (cultivar Harebutai 65) grown for 4 weeks in cell mold trays (128 holes/nursery box) were planted such that 19 seedlings were planted in each test lot having an area of 2.4 m^2 with two replications.
(§4) Preparation was performed by diluting streptomycin (Mycin 20 wettable powder solution [under the trade name] manufactured by Hokko Chemical Industry Co., Ltd.) with water to 1/1000.
(§5) In a field spread with the agricultural mulch-sheet, Chinese cabbage seedlings (cultivar: Harebutai 65) grown by the same method as in Example 2 were planted by the same method as in Example 2, for spraying the spray solution of streptomycin prepared above in (1) (at each spray volume of 300 L/10a) twice (27 days and 48 days after the planting of the seedlings) on the stems and leaves with a sprayer.
64 days after the start of the tests, all the plants in each lot were examined about the severity level of the disease to assess the frequency of the disease and the disease control value. In the same manner as described above, the frequency of the disease and the disease control value were determined. Additionally, soft rot is a disease with damages hardly controlled, so even a chemical at the level C determined by the tests of the effects can practically be used.

[3] = test system: bacteria causing the soft rot (Erwinia carotovora); assay: Inhibition test of growth of bacteria causing soft rot, Reference Test Example 1; format: cell-based; conditions: for formed colonies (growth state), grade: PSA medium, 25 degrees Celsius, 4 days
Method: as §1, with “An” for “Inhibition test of growth of bacteria causing soft rot of potato An”, “cyazofamid (RANMAN 400SC [trade name] manufactured by Ishihara Sangyo Kaisha, Ltd.), amisulbrom (LEIMAY” for “azoxystrobin (Amistar-20”, “Nissan Chemical Industries, Ltd.)” for “Syngenta Japan K.K.), penthiopyrad (GAIA WG [trade name], manufactured by Mitsui Chemicals Agro, Inc.), flusulfamide (SCABLOCK SC [trade name] manufactured by Mitsui Chemicals Agro, Inc.),”, “25” for “27”, “4” for “2”
as §2

[4] = test system: soft rot of Chinese cabbage; assay: Test for controlling soft rot of Chinese cabbage, Example 1 / Comparative Example 1 (field, cultivar Muso); format: in vivo; conditions: 250 g ai/10 a, 150 L/10 a sprayed onto planting holes before planting, 54 days after start
Method: 200 g/l Azoxystrobin (Amistar 20 FLOWABLE [trade name], manufactured by Syngenta Japan K.K.) was adjusted to 250 g ai/10a (0.25 g/m^2, 1250 ml Product/10a) as the amount of the active ingredient and to 150 L/10a as the volume of diluent water.
100 g/l Cyazofamid (RANMAN FLOWABLE [trade name], manufactured by Ishihara Sangyo Kaisha, Ltd.) was adjusted to 250 g ai/10a (0.25 g/m^2, 2500 ml Product/10a) as the amount of the active ingredient and to 150 L/10a as the volume of diluent water.
177 g/l Amisulbrom (LEIMAY FLOWABLE [trade name], manufactured by Nissan Chemical Industries, Ltd.) was adjusted individually to 250 g ai/10a (0.25 g/m^2, 1412 ml Product/10a) as the amount of the active ingredient and to 150 L/10a as the volume of diluent water.
as §3, with “about 9” for “about 5”, “of each spray solution” for “of chlorothalonil”, “was 0.25” for “was 1.0 g/m^2 (150 L per 10a) and the amount of each of the remaining spray solutions was 0.5”, “cabbage (cultivar: Muso)” for “cabbage (cultivar Harebutai 65)”, “that 30” for “that 19”, “of 6” for “of 2.4”
as §4
as §5, with “Muso)” for “Harebutai 65)”, “1” for “2”, “1,” for “2,”, “three times (13 days, 20” for “twice (27”, “27” for “48”, “leaves.” for “leaves with a sprayer.”
54 days after the start of the tests, all the plants in each lot were examined about the severity level of the disease; according to the following equations, the ratio of the plants with the onset of the disease, the frequency of the disease, and the disease control value were calculated to determine and rank the effects at A to D levels. Because soft rot is a disease with damages hardly controlled, herein, even a chemical at the level C determined by the tests of the effects can practically be used.
Ratio of the plants with the onset of the disease=(Number of plants with the onset of the disease/number of plants examined)*100
Frequency of the disease=[sigma(number of plants with the onset of the disease at each severity level*index of the onset of the disease)/(plants examined*4)]*100 […]

[5] = test system: bacteria causing the soft rot (Erwinia carotovora); assay: Inhibition test of growth of bacteria causing soft rot, Reference Test Example 3; format: cell-based; conditions: for formed colonies (growth state), grade: PSA medium, 27 degrees Celsius, 2 days; for inhibition of growth of Erwinia carotovora (in words): active ingredient concentration of 1,000 ppm
Excerpt: as §1, with “triflumizol (TRIFUMIN WP [trade name] manufactured by Nippon Soda Co., Ltd.), chlorothalonil (Daconil 1000” for “azoxystrobin (Amistar-20 FLOWABLE”, “Sumitomo Chemical Company, Limited)” for “Syngenta Japan K.K.), penthiopyrad (GAIA WG [trade name], manufactured by Mitsui Chemicals Agro, Inc.), flusulfamide (SCABLOCK SC [trade name] manufactured by Mitsui Chemicals Agro, Inc.),”, “lot. Plus or minus: apparently less than the colonies of the non-treated lot. • −: almost no colonies observed.” for “lot.”

Row | SMILES | formed colonies (growth state), grade ([1]; 100 ppm active ingredient) | formed colonies (growth state), grade ([1]; 500 ppm active ingredient) | formed colonies (growth state), grade ([1]; 1000 ppm active ingredient) | inhibition of growth of Erwinia carotovora (in words) [1] | Determination of effect ([2]; 500 g ai/10 a) | Determination of effect [4] | formed colonies (growth state), grade ([5]; 100 ppm active ingredient) | formed colonies (growth state), grade ([5]; 500 ppm active ingredient) | formed colonies (growth state), grade ([5]; 1000 ppm active ingredient) | inhibition of growth of Erwinia carotovora (in words) [5] | further results
1 | CC(C)CC(C)c1sccc1NC(=O)c1cn(C)nc1C(F)(F)F (racemic) [Penthiopyrad, (RS)-N-[2-(1,3-dimethylbutyl)-3-thienyl]-1-methyl-3-(trifluoromethyl)-1H-pyrazole-4-carboxamide] | +, + | +, + | +, + | never inhibited the growth | C (C: Effective at low level (21 to 40 disease control value)) | – | – | – | – | – | –
2 | Cc1c(Br)c2ccc(F)cc2n1S(=O)(=O)c1ncn(S(=O)(=O)N(C)C)n1 [Amisulbrom, 3-[(3-bromo-6-fluoro-2-methyl-1H-indol-1-yl)sulfonyl]-N,N-dimethyl-1H-1,2,4-triazole-1-sulfoneamide] | – | – | – | – | – | C (C: Effective at low level (21 to 40 disease control value)) | – | – | – | – | formed colonies (growth state), grade ([3]; 100 ppm active ingredient): +, +; formed colonies (growth state), grade ([3]; 500 ppm active ingredient): +, +; formed colonies (growth state), grade ([3]; 1000 ppm active ingredient): +, +; inhibition of growth of Erwinia carotovora (in words) ([3]; active ingredient concentration of 1,000 ppm): never inhibited the growth
3 | CO/C=C(/C(=O)OC)c1ccccc1Oc1cc(Oc2ccccc2C#N)ncn1 [Azoxystrobin, methyl=(E)-2-{2-[6-(2-cyanophenoxy)pyrimidin-4-yloxy]phenyl}-3-methoxyacrylate] | +, + | +, + | +, + | never inhibited the growth | B (B: Effective (41 to 60 disease control value)) | C (C: Effective at low level (21 to 40 disease control value)) | – | – | – | – | –
4 | N#Cc1c(Cl)c(Cl)c(Cl)c(C#N)c1Cl [Chlorothalonil, 2,4,5,6-tetrachloro-1,3-benzene dicarbonitrile] | – | – | – | – | – | – | +, + | +, + | +, + | never inhibited the growth | Determination of effect ([2]; 1000 g ai/10 a): B (B: Effective (41 to 60 disease control value))
5 | O=[N+]([O-])c1ccc(NS(=O)(=O)c2ccc(Cl)c(C(F)(F)F)c2)c(Cl)c1 [Flusulfamide, 2′, 4-dichloro-alpha,alpha,alpha-trifluoro-4′-nitro-m-toluenesulfone anilide] | +, + | +, + | +, + | never inhibited the growth | B (B: Effective (41 to 60 disease control value)) | – | – | – | – | – | –
6 | CCCOC/C(=N\c1ccc(Cl)cc1C(F)(F)F)n1ccnc1 [Triflumizol, (E)-4-chloro-alpha,alpha,alpha-trifluoro-N-[1-imidazol-1-yl-2-propoxyethylidene]-o-to luidine] | – | – | – | – | C (C: Effective at low level (21 to 40 disease control value)) | – | +, + | +, + | +, + | never inhibited the growth | –
